We go through 21 compounds from ChEMBL document CHEMBL1133918, “Design, synthesis and antiproliferative activity of tripentones: a new series of antitubulin agents” (Bioorg Med Chem Lett, 2001).

The test system of experiment [1] is L1210. The experiment in a line: In vitro inhibitory concentration against L1210 leukemia cell line for antiproliferative activity. The note with it: Mus musculus. The format is functional, cell-based.
Experiment [2] relates to L1210. The experiment in a line: Effect in the G2/M phase of L1210 leukemia cell with a significant percentage of cells having 8N DNA content at 5 uM. Format: functional, Mus musculus.
For experiment [3], the system named is L1210. The experiment can be described thus: Effect in the G2/M phase of L1210 leukemia cell with a significant percentage of cells having 8N DNA content at 0.5 uM. Format: functional, Mus musculus.
Experiment [4] relates to L1210. The experiment can be described thus: Effect in the G1 phase of L1210 leukemia cell at 50 uM. Format: functional, Mus musculus.
The next experiment concerns A2780. The experiment can be described thus: Tested for antiproliferative activity against A-2780 tumoral cell line. The note with it: Homo sapiens. The format is functional, cell-based.
The next experiment has as its system B16. The experiment in a line: Tested for antiproliferative activity against B16 tumoral cell line. Format: functional, cell-based. The following applies: Mus musculus.
In the next experiment the test system is KB 3-1. The experiment in a line: Tested for antiproliferative activity against KB 3-1 tumoral cell line. The note with it: Homo sapiens. Format: functional, cell-based.
The test system of the next experiment is KB. The experiment in a line: Tested for antiproliferative activity against KB-A1 tumoral cell line. The format is functional, cell-based. The note with it: Homo sapiens.
Experiment [5] concerns L1210. The experiment in a line: Tested for antiproliferative activity against L1210 tumoral cell line. Format: functional, cell-based. The following applies: Mus musculus.
In experiment [6] the test system is OVCAR-3. The experiment in a line: Tested for antiproliferative activity against Ovcar-3 tumoral cell line. Format: functional, cell-based. The note with it: Homo sapiens.
The next experiment deals with P388. The experiment can be described thus: Tested for antiproliferative activity against P388 tumoral cell line. Format: functional, cell-based. The following applies: Mus musculus.
Experiment [7] is described as follows: Concentration required to alter the assembly reaction of microtubules without any depolymerization effect. The format is functional.
Another experiment deals with NCI-H69. The experiment in a line: Tested for antiproliferative activity against H-69 tumoral cell line. The format is functional, cell-based. The note with it: Homo sapiens.
The next experiment has as its system P388/VCR-20. The experiment can be described thus: Tested for antiproliferative activity against VCR-20 tumoral cell line. Format: functional, cell-based. The note with it: Mus musculus.
Experiment [8] concerns DU-145. The experiment in a line: Tested for antiproliferative activity against DU145 tumoral cell line. The note with it: Homo sapiens. The format is functional, cell-based.
Another experiment concerns Hs-578T. The experiment in a line: Tested for cytostatic activity against Breast Hs 578.T cell line of NCI 60 tumor cell line panel. Format: functional. The following applies: Homo sapiens.
In the next experiment the test system is SF-295. The experiment in a line: Tested for cytostatic activity against Central nervous system SF-295 cell line of NCI 60 tumor cell line panel. Format: functional. The following applies: Homo sapiens.
The test system of the next experiment is HCC 2998. The experiment can be described thus: Tested for cytostatic activity against colon HCC2998 cell line of NCI 60 tumor cell line panel. The following applies: Homo sapiens. Format: functional.
The next experiment relates to MOLT-4. The experiment in a line: Tested for cytostatic activity against Leukemia MOLT-4 cell line of NCI 60 tumor cell line panel. Format: functional. The note with it: Homo sapiens.
For a further experiment, the system named is EKVX. The experiment in a line: Tested for cytostatic activity against non small cell lung(NSCL) EKVX cell line of NCI 60 tumor cell line panel. Format: functional. The note with it: Homo sapiens.
Experiment [9] deals with OVCAR-3. The experiment in a line: Tested for cytostatic activity against Ovarian OVCAR-3 cell line of NCI 60 tumor cell line panel. The format is functional. The following applies: Homo sapiens.
The test system of experiment [10] is DU-145. The experiment in a line: Tested for cytostatic activity against Prostate DU-145 cell line of NCI 60 tumor cell line panel. The format is functional. The note with it: Homo sapiens.
In a further experiment the test system is SK-MEL-2. The experiment can be described thus: Tested for cytostatic activity against Melanoma SK-MEL2 cell line of NCI 60 tumor cell line panel. Format: functional. The following applies: Homo sapiens.
A further experiment concerns A498. The experiment can be described thus: Tested for cytostatic activity against Renal A-498 cell line of NCI 60 tumor cell line panel. Format: functional. The following applies: Homo sapiens.
Experiment [11] has as its system L1210. The experiment in a line: Effect in the G2/M phase of L1210 leukemia cell with a significant percentage of cells having 8N DNA content at 1 uM. The format is functional, Mus musculus.
Experiment [12] has as its system L1210. The experiment can be described thus: Effect in the G2/M phase of L1210 leukemia cell with a significant percentage of cells having 8N DNA content at 25 uM. The format is functional, Mus musculus.
Experiment [13] has as its system L1210. The experiment in a line: Effect in the G2/M phase of L1210 leukemia cell with a significant percentage of cells having 8N DNA content at 10 uM. The format is functional, Mus musculus.
Experiment [14] in a line: Inhibition of tubulin polymerization. The format is functional.

With `COc1cc(-c2csc3c2-n2cccc2C3=O)cc(OC)c1OC`, the IC50 (in general, the concentration at which inhibition is half-maximal) in the experiment with L1210 [1] worked out at 36.4 µM.

For the compound `O=C1c2scc(-c3cccc(O)c3)c2-n2cccc21`, in the experiment with L1210 [1], the IC50 came out at 29 µM.

On to `COc1ccccc1-c1csc2c1-n1cccc1C2=O`, for which the Effect in the experiment on L1210 [2] is given as 75%. In addition, the midpoint of inhibition in the experiment with L1210 [1], the IC50, lay at 18.9 µM.

In the experiment with L1210 [3], `O=C1c2scc(-c3ccc(O)c(O)c3)c2-n2cccc21` showed an Effect of 86%. Besides, in the experiment on L1210 [1], inhibition was half-maximal at 0.28 µM (IC50).

In turn, `Cc1csc2c1-n1cccc1C2=O` yielded an IC50 in the experiment with L1210 [1] greater than 100 µM.

For the compound `O=C1c2scc(-c3ccccc3O)c2-n2cccc21`, the Effect in the experiment with L1210 [4] is given as 72%. In addition, in the experiment on L1210 [1], 3.7 µM corresponded to half-maximal inhibition (IC50).

Turning to `COc1ccc(-c2csc3c2-n2cccc2C3=O)cc1O`, the IC50 in the experiment with A2780 is 0.041 µM; in the experiment on B16, 0.023 µM; in the experiment with KB 3-1, 0.018 µM; in the experiment with KB it was 0.015 µM; in the experiment with L1210 [5], 0.015 µM; in the experiment on L1210 [1], 0.015 µM. Also, the IC50 with OVCAR-3 [6] was determined as 0.031 µM; in the experiment on P388 it was 0.038 µM; in experiment [7], 2.9 µM; in the experiment on NCI-H69 it was 0.036 µM; in the experiment on P388/VCR-20, 0.021 µM; in the experiment with DU-145 [8], 0.043 µM. The Effect with L1210 [3] is recorded as 80%.

Turning to `O=C1c2scc(-c3ccc(Cl)cc3)c2-n2cccc21`, the GI50 (in general, the concentration giving 50% growth inhibition) is 2 µM in the experiment on Hs-578T; greater than 100 µM in the experiment on SF-295; greater than 100 µM with HCC 2998; 79.4 µM with MOLT-4; 2.51 µM in the experiment on EKVX; greater than 100 µM with OVCAR-3 [9]. Also, the GI50 with DU-145 [10] is greater than 100 µM; in the experiment with SK-MEL-2 it was greater than 100 µM; in the experiment on A498, 1 µM.

`CCCOc1ccc(-c2csc3c2-n2cccc2C3=O)cc1` registered an IC50 in the experiment with L1210 [1] of 28.1 µM.

For `CCOc1ccc(-c2csc3c2-n2cccc2C3=O)cc1`, the Effect with L1210 [11] is given as 88%. The same compound displayed an IC50 in the experiment on L1210 [1] of 0.43 µM.

Consider `O=C1c2sccc2-n2cccc21`, for which the IC50 in the experiment with L1210 [1] is greater than 100 µM.

In the experiment with L1210 [12], `COc1ccc(-c2csc3c2-n2cccc2C3=O)cc1OC` had an Effect of 86%. Moreover, the IC50 with L1210 [1] was determined as 11.7 µM.

Consider `O=C1c2scc(-c3ccccc3)c2-n2cccc21`, for which the GI50 in the experiment with Hs-578T was 5.01 µM; in the experiment on SF-295, 20 µM; in the experiment on HCC 2998, 20 µM; in the experiment on MOLT-4, 12.6 µM; with EKVX, 5.01 µM; with OVCAR-3 [9], 15.8 µM. The figures for the GI50 in the experiment on DU-145 [10], in the experiment on SK-MEL-2 and in the experiment on A498 were 25.1 µM, 12.6 µM and 1.58 µM, respectively. The IC50 with L1210 [1] was determined as 26.7 µM.

As for `O=C1c2scc(-c3ccc(F)cc3)c2-n2cccc21`, the concentration for 50% growth inhibition (GI50) in the experiment on Hs-578T was 20 µM; in the experiment with SF-295, 25.1 µM; with HCC 2998 it was 25.1 µM; in the experiment with MOLT-4, 25.1 µM; with EKVX, 25.1 µM; in the experiment with OVCAR-3 [9], 50.1 µM. Also, the GI50 was 79.4 µM with DU-145 [10], 31.6 µM in the experiment on SK-MEL-2 and 1.58 µM in the experiment with A498.

Turning to `COc1cc(-c2csc3c2-n2cccc2C3=O)ccc1O`, the Effect with L1210 [12] was determined as 86%. The compound further showed an IC50 in the experiment with L1210 [1] of 8 µM.

In the case of `O=C1c2scc(-c3ccc4c(c3)OCO4)c2-n2cccc21`, the Effect in the experiment on L1210 [13] worked out at 88%. Moreover, the IC50 with L1210 [1] was 4.2 µM.

The compound `CCCCOc1ccc(-c2csc3c2-n2cccc2C3=O)cc1` gave an IC50 in the experiment on L1210 [1] of 29.6 µM.

For `COc1ccc(-c2csc3c2-n2cccc2C3=O)cc1`, the GI50 with Hs-578T is 0.0501 µM; in the experiment on SF-295, 0.0398 µM; in the experiment with HCC 2998 it was 0.316 µM; in the experiment with MOLT-4 it was 0.0398 µM; in the experiment on EKVX, 0.794 µM; with OVCAR-3 [9], 0.0398 µM. The GI50 was 0.158 µM with DU-145 [10], 0.398 µM in the experiment on SK-MEL-2 and 0.631 µM with A498. In addition, in the experiment with L1210 [3], the Effect came to 83%. Also, in the experiment with L1210 [1], 0.19 µM corresponded to half-maximal inhibition (IC50).

In the experiment with L1210 [12], `COc1cccc(-c2csc3c2-n2cccc2C3=O)c1` had an Effect of 94%. Further, in the experiment on L1210 [1], the midpoint of inhibition, the IC50, lay at 5.2 µM.

`O=C1c2scc(-c3ccc(O)cc3)c2-n2cccc21` came in with an IC50 in the experiment with L1210 [1] of 30.1 µM.

As for `COc1cc([C@@H]2c3cc4c(cc3C[C@H]3COC(=O)[C@@H]32)OCO4)cc(OC)c1OC` [DESOXYPODOPHYLLOTOXIN], the IC50 in experiment [14] came out at 2.4 µM.
